Values quoted from earlier work as cited in patent publication US5032506A, “Color control system” (priority 1986, dated 1991).

Test system: diaphorase
Conditions: chromogen substrates of diaphorase; literature values (Gella et al. 1981); read-out: Km for the tetrazolium salts

SMILES | Km
O=[N+]([O-])c1ccc(-[n+]2nc(-c3ccccc3)nn2-c2ccc(I)cc2)cc1 [INT] | 870 µM
COc1cc(-c2ccc(-n3nc(-c4ccccc4)n[n+]3-c3ccc([N+](=O)[O-])cc3)c(OC)c2)ccc1-n1nc(-c2ccccc2)n[n+]1-c1ccc([N+](=O)[O-])cc1 [NBT, nitro blue tetrazolium chloride] | 2000 µM
